The test system of one experiment is MB468. Put plainly: Proliferation assay (Calcein AM viability, 72 hours). The experiment is classed as cell-based. The following applies: read-out: PROLIFERATION ASSAY EC50 MB468. As for the experimental part: This assay measures the growth suppression effects of small molecules in cells with mutant p53 vs. p53 null background. It uses Calcein AM to measure cellular viability. Cells (p53 null and mutant) are harvested and plated at 5000 cells per well in a 96-well tissue culture plate. The volume of cells in growth media is 100 µl. Serial dilutions (2× concentration) of compounds are then made and transferred to the plate of cells. The volume of compounds in the growth media is 100 μL. This dilution of compound with cells gives a 1× final dilution of compound (200 μL total volume). Plates are then incubated at 37° C. for 72 hours. Media is then poured off and Calcein AM is added at the appropriate concentration and the plates are incubated in the dark for 15 minutes and read for fluorescence. […] Compounds having EC50 values of 6 uM or higher have been assigned the letter “D”. These letter rating has been used throughout in the data tables above.

The target of experiment [1] is GST-p53 DNA binding domain (aa 92-aa 312) (Homo sapiens, UniProt P04637). Put plainly: Scintillation Proximity Assay (SPA), displacement of 3H STANDARD COMPOUND
The conditions noted are these: 1 h. The text has this: Most of the oncogenic mutants of the tumor suppressor protein p53 lack sequence specific DNA binding activity at physiological temperature due to conformational changes in the DNA binding domain. Small molecules and peptide which bind to the p53 DNA binding domain stabilize the conformation and restore DNA binding activity to mutant p53 protein (Science 286, 2507-2510, 1999; PNAS, 99, 937-942, 2002). Using ^3H STANDARD COMPOUND (which is ^3H of the compound #1 of the present invention; the * Carbon atom is the one labeled; structure shown below), [drawing 2234] a radio labeled small molecule which binds to p53, and the GST-p53 DNA binding domain (aa 92-aa 312), we have developed a quantitative screening assay. The assay is based on Scintillation Proximity Assay (SPA) technology, developed by Amersham Biosciences to measure molecular interactions. Briefly, the complex of GST-p53, ^3H STANDARD and Glutathione-SPA beads (Amersham Biosciences) are incubated with mixing for 1 hr at room temperature in the presence of the novel compounds to be screened. The signal is read on Microbeta. The compounds which have the ability to displace ^3H STANDARD COMPOUND are selected. Such molecules will stabilize the conformation and restore DNA binding activity to mutant p53 protein.
The above assay was used to determine the ability of the compounds of this invention to restore DNA binding activity to mutant p53 and the results for selected compounds have been given above in various tables.
A letter rating corresponding to % Residual total binding (T) @ 2 ug/mL of drug (i.e., compound of the present invention) from this assay have been assigned as follows: Compounds having % Residual T values of from 0% to less than 20% have been assigned the letter “A”. Compounds having % Residual T values of from 20% to less than 40% have been assigned the letter “B”. Compounds having % Residual T values of from 40% to less than 80% have been assigned the letter “C”. Compounds having % Residual T values of 80% or higher have been assigned the letter “D”. The exact % Residual T values @ 2 ug/mL for some illustrative compounds are shown below: […]
(In general: In a scintillation proximity assay essentially only radioactivity close to the scintillant gives light.)

[2] abbreviates: 2 ug/mL of drug, lower is better, read-out: % Residual T @ 2 ug/mL rating according to scintillation proximity assay (SPA).

Where two headings read alike, the source gives them in different places.

Sequence of GST-p53 DNA binding domain (aa 92-aa 312) (P04637 92-312): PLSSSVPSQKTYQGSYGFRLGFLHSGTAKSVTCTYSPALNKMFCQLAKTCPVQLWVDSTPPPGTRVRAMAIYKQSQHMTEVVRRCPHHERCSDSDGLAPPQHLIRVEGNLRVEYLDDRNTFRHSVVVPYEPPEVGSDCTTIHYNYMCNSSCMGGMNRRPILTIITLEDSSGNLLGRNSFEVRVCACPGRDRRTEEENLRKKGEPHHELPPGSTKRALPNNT

Turning to `NC(=O)C1CCN(c2nc(CN3CCN(C(c4ccc(Cl)cc4)c4ccc(Cl)cc4)CC3)nc3ccccc23)CC1` [Example 30-28], the EC50 with MB468 (MB468) is greater than 6 µM. Also, in experiment [1] (read-out: SPA ASSAY (% residual T @ 2 ug/mL of drug)), the remaining activity at 2 µg/mL is greater than 80%.
Consider `Clc1ccc(C(c2ccc(Cl)cc2)N2CCN(Cc3nc(N4CCc5ccccc5C4)c4ccccc4n3)CC2)cc1` [Example 30-12], for which the EC50 with MB468 (MB468) was greater than 6 µM.
For `CN(Cc1ccccc1)c1nc(CN2CCN(C(c3ccc(Cl)cc3)c3ccc(Cl)cc3)CC2)nc2ccccc12` [Example 30-11], in the experiment on MB468 (MB468), the EC50 was greater than 6 µM.
Consider `Clc1ccc(C(c2ccc(Cl)cc2)N2CCN(Cc3nc(N4CCN(Cc5ccccc5)CC4)c4ccccc4n3)CC2)cc1` [Example 30-20], for which, in the experiment with MB468 (MB468), the EC50 was 2 to 4 µM.
Still for that read-out and setting: as for `Clc1ccc(C(c2ccc(Cl)cc2)N2CCN(Cc3nc(N4CCC(Cc5ccccc5)CC4)c4ccccc4n3)CC2)cc1` [Example 30-19], the figure is 4 to 6 µM.
For `CN(C)CCC[C@H](Nc1nc(CN2CCN(C(c3ccc(Cl)cc3)c3ccc(Cl)cc3)CC2)nc2ccccc12)C(N)=O` [Example 46, 2(S)-(+)-2-(2-{4-[BIS-(4-CHLOROPHENYL)METHYL]PIPERAZIN-1-YLMETHYL}QUINAZOLIN-4-YLAMINO)-5-DIMETHYLAMINOPENTANAMIDE], the remaining activity at 2 µg/mL in experiment [1] (setting [2]) was greater than 80%.
Consider `Clc1ccc(C(c2ccc(Cl)cc2)N2CCN(Cc3nc(N4CCN(c5ccccc5)CC4)c4ccccc4n3)CC2)cc1` [Example 30-15], for which the EC50 with MB468 (MB468) is 4 to 6 µM.
As to `CN(C)CCCC[C@H](Nc1nc(CN2CCN(C(c3ccc(Cl)cc3)c3ccc(Cl)cc3)CC2)nc2ccccc12)C(N)=O` [Example 47, 2(S)-(+)-2-(2-{4-[BIS-(4-CHLOROPHENYL)METHYL]PIPERAZIN-1-YLMETHYL}QUINAZOLIN-4-YLAMINO)-6-DIMETHYLAMINOHEXANAMIDE], the remaining activity at 2 µg/mL in experiment [1] (setting [2]) lay within 40 to 80%.
For `CN(CCC1C=Nc2ccccc21)c1nc(CN2CCN(C(c3ccc(Cl)cc3)c3ccc(Cl)cc3)CC2)nc2ccccc12` (centres unmarked) [Example 30-18], the EC50 in the experiment with MB468 (MB468) is 2 to 4 µM.
On to `CN(C)CC[C@H](Nc1nc(CN2CCN(C(c3ccc(Cl)cc3)c3ccc(Cl)cc3)CC2)nc2ccccc12)C(N)=O` [Example 43, 2(S)-(−)-2-(2-{4-[BIS-(4-CHLOROPHENYL)METHYL]PIPERAZIN-1-YLMETHYL}QUINAZOLIN-4-YLAMINO)-4-DIMETHYLAMINOBUTYRAMIDE], for which the remaining activity at 2 µg/mL in experiment [1] (setting [2]) lay in the range of 40 to 80%.
Take `CCOC(=O)[C@H](CCN(C)C)Nc1nc(CN2CCN(C(c3ccc(Cl)cc3)c3ccc(Cl)cc3)CC2)nc2ccccc12` [Example 44, 2(S)-(+)-2-(2-{4-[bis-(4-chlorophenyl)methyl]piperazin-1-ylmethyl}quinazoline-4-ylamino)-4-dimethylaminobutyric acid ethyl ester]: in experiment [1] (setting [2]), the remaining activity at 2 µg/mL is 40 to 80%.
Take `Clc1ccc(C(c2ccc(Cl)cc2)N2CCN(Cc3nc(N4CCCCCC4)c4ccccc4n3)CC2)cc1` [Example 30-5]: the EC50 in the experiment on MB468 (MB468) was 2 to 4 µM.
Turning to `Clc1ccc(C(c2ccc(Cl)cc2)N2CCN(Cc3nc(N4CCN(c5ncccn5)CC4)c4ccccc4n3)CC2)cc1` [Example 30-17], the EC50 with MB468 (MB468) was greater than 6 µM.
Take `COc1ccc(/C=C/c2nc(NCCCN(C)C)c3ccccc3n2)cc1` [CP-31398, reference compound]: in the experiment on MB468 (72 h, MB468 cells, 72 hours), the EC50 was 4.1 µM.
The same measure, in the same setting: the same measure for `CN(C)CCCNc1nc(CN2CCN(C(c3ccccc3)c3ccc(OC(F)(F)F)cc3)CC2)nc2ccccc12` (centres unmarked) [Example 11-2]: 1.6 µM.
For the compound `CC(C)COC(=O)[C@H](CCCN(C)C)Nc1nc(CN2CCN(C(c3ccc(Cl)cc3)c3ccc(Cl)cc3)CC2)nc2ccccc12` [Example 45, 2(S)-(−)-2-(2-{4-[BIS-(4-CHLOROPHENYL)METHYL]PIPERAZIN-1-YLMETHYL}QUINAZOLIN-4-YLAMINO)-5-DIMETHYLAMINOPENTANOIC ACID ISOBUTYL ESTER], in experiment [1] (setting [2]), the remaining activity at 2 µg/mL was greater than 80%.

Values taken from US20070032502A1, “Quinazoline derivatives useful in cancer treatment” (Schering Corporation, priority 2005, published 2007).
